Data from patent US9321804B2, “Synthesis and use of anti-tumor drug LQC-Y” (Beijing University of Chinese Medicine, priority 2011, dated 2016).
“Also recorded” adds a separate entry of the source.

Key:
[1] = tested on: Human hepatoma carcinoma cells Bel7402; experiment: Proliferation of human hepatoma carcinoma cells Bel7402 by MTT; format: cell-based; details: 40 μg/ml
S180 sarcoma of mice = experiment: Tumor inhibiting effect of LQC-Y2 in tumor bearing S180 mice; details: for Tumor inhibiting ratio (%) / Tumor weight: S180 Balb/C mice, 15 days
Experimental: The S180 mice that had been inoculated for 7 days were killed by breaking the neck thereof and ascites was taken from the mice respectively in an aseptic environment and the ascites was washed using RPMI1640 culture medium for 2 times and then made into a […] /ml cell suspension using aseptic physiological saline. Then the obtained S180 cell suspension was inoculated hypodermically at the right axillary of mice, 0.1 ml for each mouse and 50 mice total, to establish the solid tumor model.
60 mice were divided into 2 categories, including 6 groups, according to the random number table method, i.e. normal control group of the first category, and S180 solid tumor groups of the second category which included positive (cyclophosphamide) control group, negative control group, small dosage group, middle dosage group and large dosage group, 10 mice for each group. The experiment was repeated for 3 times.
LQC-Y2 was made into an emulsion using corn oil. The dosage of the small dosage group was 75 mg/Kg, the dosage of the middle dosage group was 150 mg/Kg, and the dosage of the large dosage group was 300 mg/kg. Equal volume of corn oil was injected into the mice of the negative control group, cyclophosphamide injection 0.02 g/(Kg.d) was injected into the mice of the positive control group. These medicines were administrated 0.1 ml per mouse by intraperitoneal injection every the other day continuously for 15 days. During this period, the common behavior, hair and excrement and so on were observed daily. The mice that had been inoculated with S180 by hypodermic inoculation were killed by breaking the necks thereof after 24 h after the last administration and the tumor, liver and spleen were then taken.
The weight of the solid tumor group mice were measured after all the administration was over and then the mice were killed. The spleens and the livers thereof were weighed by an electronic balance. The spleen index was calculated as the spleen weight of a mouse (mg)/the body weight of a mouse(g) and the liver index was calculated as the liver weight of a mouse[…]/the body weight of a mouse(g).
The solid tumor negative control group mice were weighed on the next day after the administration was finished (the eyeballs of the mice were removed to bleed and the serum was collected for subsequent experimental use). Then the mice were killed by breaking the neck thereof. The tumor tissues were taken out and weighed by an electronic balance to calculate the tumor-inhibiting ratio.
All the data were statistically analyzed using SPSS11.0 software pack. The comparison of the enumeration data was carried out with X^2 test. P<0.05 had statistical significance.

[2] = tested on: small vessel growth of CAM model; experiment: Effect of LQC-Y on tumor angiogenesis using CAM method (small vessel count); format: in vivo, chicken; details: compared with the blank group
Experimental: Aseptic gelatin sponge, which was made into a wafer having a diameter of 5 mm by a hole-puncher in advance, was used as sample carrier. The prepared derivatives of bromotetramethylpyrazine series were added thereinto in an aseptic environment and different dosage groups were set according to the difference of the molecular weight of each medicine, including 10 μg/chicken embryo, 20 μg/chicken embryo and 40 μg/chicken embryo. The 0.9% physiological saline was used in a blank group. The samples were air-dried in an aseptic environment.
A hatching egg after disinfection was put into a 37° C. incubation box with air sac upward until the seventh day of incubation. The egg embryo was disinfected using alcohol at a super clean bench, and then a small hole was drilled at the top of the egg embryo using a dental drill, and the nearby egg shell and shell membrane were removed carefully to form a opening with the size of about 1.2 cm×1.2 cm. […]
After the incubation, the transparent tape blocking the chicken embryo air sac was softly removed with a nipper. […] The effect of the compounds on angiogenesis was evaluated by the count analytic method using the numbers of great vessels, medium vessels and small vessels arranged radially around the carrier. […]

[3] = tested on: Human hepatoma carcinoma cells Bel7402; experiment: Proliferation of human hepatoma carcinoma cells Bel7402 by MTT; format: cell-based; details: for 24 h inhibition ratio (%): Bel7402 cells; for inhibiting effect on the proliferation of Bel7402 cells: cultured in vitro, 10-40 μg/ml
Experimental: Human hepatoma carcinoma cells Bel7402 were recovered and subcultured using a culture flask. The preparation of the experiment was started when the cell growth entered into the exponential growth phase. The cells were then digested using pancreatic enzyme which had been filtrated at an increased pressure to prepare the cell suspension. After that the suspension was dyed for 3 min with 0.4% trypan blue. Then a blood cell counting plate was used to count the living cells which were not dyed and the dead cells which were dyed to blue. The number of the living cells identified by trypan blue was more than 98%.
Three kinds of cells which were in the exponential growth phase were inoculated at the density of 1×10^4/ml, to a 96-well plate, 200 μl for each well. Then the plate was put in a 37° C. 5% CO2 incubation box to be cultured for 24 h. The cultivation liquid was sucked away and 200 μl LQC-Y solutions of different concentrations were added thereinto (prepared with DMEM cultivation liquid containing 4% calf serum and the final concentration of which respectively were 10 μg, 20 μg, 40 μg), 4 parallel wells for each concentration. Supernatant cultivation liquid 100 μl was sucked away carefully from each well after being cultured for 24 h and 48 h, and MTS 20 μl was added into each well and homogeneously mixed. The resultant liquid was cultured in a 37° C. 5% CO2 incubation box for a further 1 h. An enzyme-labeling quantitative instrument was used to measure the absorbance at 492 nm. The experiment was repeated for 3 times and then an inhibition ratio was calculated.
The inhibition ratio of cell proliferation (%)=[(average OD value of control group-average OD value of the administration group)/average OD value of control group]×100%

[4] = large dosage 300 mg/kg i.p. every other day
[5] = middle dosage 150 mg/Kg i.p. every other day
[6] = small dosage 75 mg/Kg i.p. every other day

| Structure (SMILES) | 24 h inhibition ratio (%) [1] | effect on the growth of the sarcoma of S180 mice (S180 sarcoma of mice; 75-300 mg/kg i.p.) | Tumor inhibiting ratio (%) (S180 sarcoma of mice; [4]) | Tumor weight (S180 sarcoma of mice; [4]) | Tumor inhibiting ratio (%) (S180 sarcoma of mice; [5]) | Tumor weight (S180 sarcoma of mice; [5]) | Tumor inhibiting ratio (%) (S180 sarcoma of mice; [6]) | Tumor weight (S180 sarcoma of mice; [6]) | effect on the growth of the S180 sarcoma mice's weight (S180 sarcoma of mice; mouse, in vivo) | vessel growth inhibiting effect [2] | 24 h inhibition ratio (%) ([3]; 10 μg/ml) | 24 h inhibition ratio (%) ([3]; 20 μg/ml) | inhibiting effect on the proliferation of Bel7402 cells [3] |
| --- | --- | --- | --- | --- | --- | --- | --- | --- | --- | --- | --- | --- | --- |
| Cc1nc(C)c(COC(=O)CCC(C)C2CCC3C4CCC5CC(O)CCC5(C)C4CC(O)C23C)nc1C (stereo not drawn) [LQC-Y2, (3,5,6-trimethyl pyrazine-2-yl)methyl-4-(3,12-dihydroxy-10,13-dimethylhexadecahydro-1H-cyclopenta[a]phenanthren-17-yl)pentanoate] | 66.98% | Some Effect on Inhibiting the Growth; also recorded: inhibit the growth of S180 tumor effectively | 29.15% | 0.92 ± 0.49 g | 35.88% | 0.84 ± 0.53 g | 6.87% | 1.22 ± 0.62 g | no effect | significant inhibiting effect; also recorded: magnificent inhibiting effect | 20.09% | 61.2% | evident inhibiting effect |
| COc1cc(/C=C/C(=O)CC(=O)/C=C/c2ccc(OCc3nc(C)c(C)nc3C)c(OC)c2)ccc1OCc1nc(C)c(C)nc1C [LQC-Y8, (1E,6E)-1,7-bis(3-methoxy-4-((3,5,6-trimethylpyrazine-2-yl)methoxy)phenyl)heptyl-1,6-diene-3,5-diketone] | 54.07% | – | – | – | – | – | – | – | – | significant inhibiting effect; also recorded: magnificent inhibiting effect | 39.31% | 44.58% | evident inhibiting effect |
